Test results reported in US7332501B2, “Indol-3-yl-carbonyl-spiro-piperidine derivatives as V1a receptor antagonists” (Hoffmann-La Roche Inc., priority 2005, dated 2008).
Counter-ions that a name gives are not always drawn.

Target: T1, human V1a receptor (Homo sapiens, UniProt P37288)
T1 construct: expressed in transfected cells; host or cells: HEK293 cells, transiently transfected; cell membranes
Experiment: human V1a receptor binding (3H-Vasopressin SPA, HEK293 membranes)
Conditions: displacement of 4 nM 3H-Vasopressin, membranes of HEK293 cells transiently transfected with human V1a receptor; Ki from IC50 by Cheng-Prussoff
Summary of the method: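 Ki derived by Cheng-Prusoff from IC50 curves normalised to specific binding. Serially diluted compounds (in 2% DMSO) competed with 3H-vasopressin (4 nM working solution) for 1 h at room temperature on SPA beads bearing membranes of transiently transfected HEK293 cells; unlabelled vasopressin defined non-specific counts.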

T1 sequence (P37288 whole entry): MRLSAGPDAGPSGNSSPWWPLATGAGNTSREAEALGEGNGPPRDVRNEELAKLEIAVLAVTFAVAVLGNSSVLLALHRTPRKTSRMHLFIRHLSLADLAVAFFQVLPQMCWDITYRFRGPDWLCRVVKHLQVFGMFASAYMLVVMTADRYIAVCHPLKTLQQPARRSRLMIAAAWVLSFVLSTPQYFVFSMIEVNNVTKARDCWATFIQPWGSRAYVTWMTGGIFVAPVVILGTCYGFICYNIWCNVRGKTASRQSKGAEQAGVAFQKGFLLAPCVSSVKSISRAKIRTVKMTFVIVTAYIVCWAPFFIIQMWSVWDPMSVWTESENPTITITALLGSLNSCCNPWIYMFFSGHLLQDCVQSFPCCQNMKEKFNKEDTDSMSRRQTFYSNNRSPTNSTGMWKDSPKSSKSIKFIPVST

| Compound | Ki [nM] |
| --- | --- |
| CC(C)(C)OC(=O)N1CCOC(Cn2cc(C(=O)N3CCC4(CC3)OCc3ccccc34)c3ccc(Cl)cc32)C1 (stereo not shown) [Example 247, tert-Butyl 2-{[6-chloro-3-(1′H,3H-spiro[2-benzofuran-1,4′-piperidin]-1′-ylcarbonyl)-1H-indol-1-yl]methyl}morpholine-4-carboxylate] | 2.3 |
| CCN(CC)CCn1cc(C(=O)N2CCC3(CC2)COc2ccccc23)c2ccc(Cl)cc21 [Example 85, 2-[6-chloro-3-(1′H-spiro[1-benzofuran-3,4′-piperidin]-1′-ylcarbonyl)-1H-indol-1-yl]-N,N-diethylethanamine] | 10.2 |
| CN1CCC[C@@H]1Cn1cc(C(=O)N2CCC3(CC2)OCc2ccccc23)c2ccc(Cl)cc21 [Example 269] | 1 |
| O=C1OC2(CCN(C(=O)c3cn(Cc4ccccn4)c4cc(Cl)ccc34)CC2)c2ccc(F)cc21 [Example 171, 1′-{[6-Chloro-1-(pyridin-2-ylmethyl)-1H-indol-3-yl]carbonyl}-5-fluoro-3H-spiro[2-benzofuran-1,4′-piperidin]-3-one] | 2.7 |
| 1′-({6-Chloro-1-[(2S)-pyrrolidin-2-ylmethyl]-1H-indol-3-yl}carbonyl)-3H-spiro[2-benzofuran-1,4′-piperidine [Example 267] | 1.4 |
| CC1CCN(C(=O)c2[nH]c3cc(Cl)ccc3c2C(=O)N2CCC3(CC2)OC(=O)c2cc(F)ccc23)CC1 [Example 24, 1′-({6-chloro-2-[(4-methylpiperidin-1-yl)carbonyl]-1H-indol-3-yl}carbonyl)-5-fluoro-3H-spiro[2-benzofuran-1,4′-piperidin]-3-one] | 33.1 |
| CNC(=O)Cn1cc(C(=O)N2CCC3(CC2)NC(=O)c2ccccc23)c2ccc(Cl)cc21 [Example 283, 2-{6-Chloro-3-[(3-oxo-2,3-dihydro-1′H-spiro[isoindole-1,4′-piperidin]-1′-yl)carbonyl]-1H-indol-1-yl}-N-methylacetamide] | 63.1 |
| O=C(Cn1cc(C(=O)N2CCC3(CC2)OC(=O)c2ccccc23)c2ccc(Cl)cc21)c1cccc(F)c1 [Example 135, 1′-({6-Chloro-1-[2-(3-fluorophenyl)-2-oxoethyl]-1H-indol-3-yl}carbonyl)-3H-spiro[2-benzofuran-1,4′-piperidin]-3-one] | 1.8 |
| Cc1c(C(=O)N2CCC3(CC2)OCc2ccccc23)c2ccccc2n1Cc1ccccc1 [Example 39, 1′-[(1-benzyl-2-methyl-1H-indol-3-yl)carbonyl]-3H-spiro[2-benzofuran-1,4′-piperidine]] | 1.8 |
| CN1CCn2c(c(C(=O)N3CCC4(CC3)OCc3ccccc34)c3ccccc32)C1 [Example 276, 1′-[(2-Methyl-1,2,3,4-tetrahydropyrazino[1,2-a]indol-10-yl)carbonyl]-3H-spiro[2-benzofuran-1,4′-piperidine]] | 12 |
| O=C(Cn1cc(C(=O)N2CCC3(CC2)COc2ccccc23)c2ccc(Cl)cc21)N1CCCCC1 [Example 87, 1′-{[6-chloro-1-(2-oxo-2-piperidin-1-ylethyl)-1H-indol-3-yl]carbonyl}spiro[1-benzofuran-3,4′-piperidine]] | 3.5 |
| O=C(c1c2n(c3ccccc13)CCNC2)N1CCC2(CC1)OCc1ccccc12 [Example 275, 1′-(1,2,3,4-Tetrahydropyrazino[1,2-a]indol-10-ylcarbonyl)-3H-spiro[2-benzofuran-1,4′-piperidine]hydrochloride] | 15.7 |
| O=C1OC2(CCN(C(=O)c3cn(CC4(F)COC4)c4cc(Cl)ccc34)CC2)c2ccc(F)cc21 [Example 188, 1′-({6-Chloro-1-[(3-fluorooxetan-3-yl)methyl]-1H-indol-3-yl}carbonyl)-5-fluoro-3H-spiro[2-benzofuran-1,4′-piperidin]-3-one] | 1.6 |
| CN(C)C(=O)Cn1cc(C(=O)N2CCC3(CC2)CNc2ccccc23)c2ccc(Cl)cc21 [Example 100, 2-[6-Chloro-3-(1,2-dihydro-1′H-spiro[indole-3,4′-piperidin]-1′-ylcarbonyl)-1H-indol-1-yl]-N,N-dimethylacetamide] | 3.4 |
| COc1ccc2c(c1)C1(CCN(C(=O)c3c(C)n(Cc4ccccc4)c4ccccc34)CC1)OC2=O [Example 12, 1′-[(1-benzyl-2-methyl-1H-indol-3-yl)carbonyl]-6-methoxy-3H-spiro[2-benzofuran-1,4′-piperidin]-3-one] | 3.4 |

More lines, in order of falling Ki, values ahead:

| Ki [nM] | Compound |
| --- | --- |
| 25.1 | O=C(c1cn(S(=O)(=O)c2cc(F)cc(F)c2)c2cc(Cl)ccc12)N1CCC2(CC1)OCc1ccccc12 [Example 218] |
| 20.4 | NC(=O)c1[nH]c2cc(Cl)ccc2c1C(=O)N1CCC2(CC1)OC(=O)c1cc(F)ccc12 [Example 25, 6-chloro-3-[(5-fluoro-3-oxo-1′H,3H-spiro[2-benzofuran-1,4′-piperidin]-1′-yl)carbonyl]-1H-indole-2-carboxamide] |
| 12.3 | COc1ccccc1-c1nc(Cn2c(C)c(C(=O)N3CCC4(CC3)OCc3ccccc34)c3ccccc32)c(C)o1 [Example 58, 1′-[(1-{[2-(2-methoxyphenyl)-5-methyl-1,3-oxazol-4-yl]methyl}-2-methyl-1H-indol-3-yl)carbonyl]-3H-spiro[2-benzofuran-1,4′-piperidine]] |
| 11 | Cc1[nH]c2ccccc2c1C(=O)N1CCC2(CC1)OCc1ccccc12 [Example 43, 1′-[(2-methyl-1H-indol-3-yl)carbonyl]-3H-spiro[2-benzofuran-1,4′-piperidine]] |
| 7.7 | NCCn1cc(C(=O)N2CCC3(CC2)OCc2ccccc23)c2ccc(Cl)cc21 [Example 253, 2-[6-Chloro-3-(1′H,3H-spiro[2-benzofuran-1,4′-piperidin]-1′-ylcarbonyl)-1H-indol-1-yl]ethanamine] |
| 5.6 | CN(C)CCn1cc(C(=O)N2CCC3(CC2)OCc2ccccc23)c2ccccc21 [Example 71, N,N-dimethyl-2-[3-(1′H,3H-spiro[2-benzofuran-1,4′-piperidin]-1′-ylcarbonyl)-1H-indol-1-yl]ethanamine] |
| 4.4 | O=C1OC2(CCN(C(=O)c3c[nH]c4cc(Cl)ccc34)CC2)c2ccccc21 [Example 16, 1′-[(6-chloro-1H-indol-3-yl)carbonyl]-3H-spiro[2-benzofuran-1,4′-piperidin]-3-one] |
| 4.3 | O=C(c1cn(CCNO)c2cc(Cl)ccc12)N1CCC2(CC1)OCc1ccccc12 [Example 262, 2-[6-Chloro-3-(1′H,3H-spiro[2-benzofuran-1,4′-piperidin]-1′-ylcarbonyl)-1H-indol-1-yl]-N-hydroxyethanamine] |
| 3 | O=C(Cn1cc(C(=O)N2CCC3(CC2)OC(=O)c2ccccc23)c2ccc(Cl)cc21)c1cc(F)ccc1F [Example 136, 1′-({6-Chloro-1-[2-(2,5-difluorophenyl)-2-oxoethyl]-1H-indol-3-yl]carbonyl)-3H-spiro[2-benzofuran-1,4′-piperidin]-3-one] |
| 2.6 | O=C1OC2(CCN(C(=O)c3cn(Cc4cncnc4)c4cc(Cl)ccc34)CC2)c2ccc(F)cc21 [Example 174, 1′-{[6-Chloro-1-(pyrimidin-5-ylmethyl)-1H-indol-3-yl]carbonyl}-5-fluoro-3H-spiro[2-benzofuran-1,4′-piperidin]-3-one] |
| 2.3 | NCCNC(=O)Cn1cc(C(=O)N2CCC3(CC2)OCc2ccccc23)c2ccc(Cl)cc21 [Example 252, N-(2-Aminoethyl)-2-[6-chloro-3-(1′H,3H-spiro[2-benzofuran-1,4′-piperidin]-1′-ylcarbonyl)-1H-indol-1-yl]acetamide] |
| 2.2 | Cc1cc(Cn2cc(C(=O)N3CCC4(CC3)OC(=O)c3cc(F)ccc34)c3ccc(Cl)cc32)ccn1 [Example 161, 1′-({6-Chloro-1-[(2-methylpyridin-4-yl)methyl]-1H-indol-3-yl}carbonyl)-5-fluoro-3H-spiro[2-benzofuran-1,4′-piperidin]-3-one] |
| 1.9 | CNCCn1cc(C(=O)N2CCC3(CC2)OCc2ccccc23)c2ccc(Cl)cc21 [Example 254, 2-[6-Chloro-3-(1′H,3H-spiro[2-benzofuran-1,4′-piperidin]-1′-ylcarbonyl)-1H-indol-1-yl]-N-methylethanamine] |
| 1.9 | O=C(c1cn(CCC2CCOCC2)c2cc(Cl)ccc12)N1CCC2(CC1)OCc1ccccc12 [Example 246, 1′-({6-Chloro-1-[2-(tetrahydro-2H-pyran-4-yl)ethyl]-1H-indol-3-yl}carbonyl)-3H-spiro[2-benzofuran-1,4′-piperidine]] |
| 1.5 | O=C(Cn1cc(C(=O)N2CCC3(CC2)OC(=O)c2cc(F)ccc23)c2ccc(Cl)cc21)c1ccccn1 [Example 169, 1′-{[6-Chloro-1-(2-oxo-2-pyridin-2-ylethyl)-1H-indol-3-yl]carbonyl}-5-fluoro-3H-spiro[2-benzofuran-1,4′-piperidin]-3-one] |
| 1.4 | CNC(=O)Cn1cc(C(=O)N2CCC3(CC2)OCc2ccccc23)c2ccc(Cl)cc21 [Example 255, 2-[6-Chloro-3-(1′H,3H-spiro[2-benzofuran-1,4′-piperidin]-1′-ylcarbonyl)-1H-indol-1-yl]-N-methylacetamide] |
| 1.3 | O=C(Cn1cc(C(=O)N2CCC3(CC2)OC(=O)c2ccccc23)c2ccc(Cl)cc21)c1ccc(F)c(F)c1 [Example 154, 1′-({6-Chloro-1-[2-(3,4-difluorophenyl)-2-oxoethyl]-1H-indol-3-yl}carbonyl)-3H-spiro[2-benzofuran-1,4′-piperidin]-3-one] |
| 1.3 | CC(=O)N(C)CCn1cc(C(=O)N2CCC3(CC2)OCc2ccccc23)c2ccc(Cl)cc21 [Example 272, N-{2-[6-Chloro-3-(1′H,3H-spiro[2-benzofuran-1,4′-piperidin]-1′-ylcarbonyl)-1H-indol-1-yl]ethyl}-N-methylacetamide] |
| 1.1 | CN(CCn1cc(C(=O)N2CCC3(CC2)OCc2ccccc23)c2ccc(Cl)cc21)S(C)(=O)=O [Example 273, N-{2-[6-Chloro-3-(1′H,3H-spiro[2-benzofuran-1,4′-piperidin]-1′-ylcarbonyl)-1H-indol-1-yl]ethyl}-N-methylmethanesulfonamide] |
